Results published in patent US7067486B2, “Acetylcholinesterase-derived peptides and uses thereof” (priority 1999, dated 2006).
Marks after values point to notes of the source that are not given here.

Assays:
Format in all cases: cell-based, human
[1] = tested on: CD34^+ cells; assay: Cell phenotyping of CD34+ liquid cultures by flow cytometry (CD34, CD33, CD15, CD41); details: for MK (CD41^+) fold expansion / Myeloid (CD33^+) fold expansion: 2-week primary cultures of CD34+ cells from 1 to 3 individuals, ± SEM where noted
Description: Cell Source: UCB was collected, following informed consent of the parents and with the approval of the Sourasky Medical Center Ethics Committee, as previously described [Grisaru et al. (1999a) Am. J. Obstet. Gynecol, 180, 1240–1243]. Following 1:1 (v/v) dilution in Iscove's modified Dulbecco medium (IMDM, Beit Haemek, Israel), mononuclear cells were separated using 3% gelatin (Difco, Detroit, Mich.) and Ficoll-Hypaque gradients (<1.077 g/ml; Pharmacia, Uppsala, Sweden) [Pick et al. (1998) Br. J. Haematol. 103, 639–50]. CD34^+ cells were enriched using CD34 immunoglobulin-coated magnetic beads (CD34 progenitor cell selection system, Dynal, Norway).CD34^+ cells analysis was performed by flow cytometry (Becton Dickinson Immunocytochemistry System Inc., San Jose, Calif.), using CD34-PE (Becton Dickinson Immunocytometry System, Inc.) and CD45-FITC (Dako, Glostrup, Denmark) monoclonal antibodies. […] Liquid Cultures: UCB CD34^+ cells were set for liquid cultures at a concentration of 10^5/mL in IMDM, containing 10% autologous plasma, 2 mM L-glutamine (Sigma Chemical Co., St Louis, Mo.), penicillin ([…]), streptomycin ([…]), amphotericin B (2×10^−5 M) (Sigma Chemical Co.), and heparin (20 IU/mL, Gibco, Grand Island, N.Y.), all in a fully humidified atmosphere at 37° C. and 5% CO2. The following elements were added where noted: • 1. […] Endothlial Growth factors: Epidermal growth factor (EGF 10 ng/ml, Sigma Chemical Co.), basic Fibroblast growth factor (bFGF 20 ng/ml, Sigma Chemical Co.) incubated in a serum free medium (SFM) for 48 hr. • 3. Stress mimicking conditions: Hydrocortisone sodium succinate (Abic Ltd., Netanya, Israel) at concentrations equivalent to normal, intermediate and stress serum cortisol levels (0.1, 0.6 and 1.2 μM, respectively (De Vroede et al., Arch. Des. […] Antisense oligonucleotides: 3′-terminal 2′-O-Methylated 15- and 20-mer oligodeoxynucleotides in the antisense (AS) orientation, targeted against the common sequence domain in human AChEmRNA and BuChE mRNA, as control, […], as detailed elsewhere [Grisaru et al. (1999b) Mol. Cell. Biol. 19, 788–95]. • 5. AChE C-terminal peptides: The following C-terminal peptides of the AChE synaptic (ASP, also denoted SEQ ID: No. 2) and readthrough (ARP, also denoted SEQ ID: No. 1) isoforms were synthesized using a 433A peptide synthesizer (PE Applied Biosystems, Inc., Norwalk, Conn.). • ASP: 1-[…]-40, also denoted as SEQ ID: No. 2. • ARP: 1-[…]-26, also denoted as SEQ ID: No. 1.
Culture Analyses: Twenty-four hr liquid cultures served for cytochemical staining, in situ hybridization, and cell proliferation assay by 5-bromo-2′-deoxy-Uridine (BrdU) incorporation [Grisaru et al. (1999b) id ibid.]. Twenty-eight day liquid cultures were sampled every 6–8 days for viable cell counting (using trypan blue dye exclusion), cell phenotyping (CD34^+, CD33^+ and CD41^+ quantification using flow cytometry, with CD34-PE, CD33-FITC (Immunotech/Coulter, Hialeah, Fla.), CD41-FITC (Immunoquality Products, Groningen, Netherlands) and CD45-FITC monoclonal antibodies), and growth of progenitor colony (granulocyte-macrophage and megakaryocytic), using previously described techniques (Pick et al. (1998) id ibid.). […] 11, 1049–57]. Nuclear staining w with 4′,6-diamidino-2- phenylindole [DAPI, see e.g., Peterson et al. (1999) Genetics 152, 427–439].

[2] = tested on: CD34^+ cells; assay: Viable cell expansion in CD34+ liquid cultures (trypan blue exclusion); details: day 14; seeded at 50,000 cells/well; ARP 2 nM, cortisol 1.2 μM, ASP 2 nM, SCF 50 ng/ml, AS1 20 pM, PBAN 2 nM
Description: Cell Source: UCB was collected, following informed consent of the parents and with the approval of the Sourasky Medical Center Ethics Committee, as previously described [Grisaru et al. (1999a) Am. J. Obstet. Gynecol, 180, 1240–1243]. Following 1:1 (v/v) dilution in Iscove's modified Dulbecco medium (IMDM, Beit Haemek, Israel), mononuclear cells were separated using 3% gelatin (Difco, Detroit, Mich.) and Ficoll-Hypaque gradients (<1.077 g/ml; Pharmacia, Uppsala, Sweden) [Pick et al. (1998) Br. J. Haematol. 103, 639–50]. CD34^+ cells were enriched using CD34 immunoglobulin-coated magnetic beads (CD34 progenitor cell selection system, Dynal, Norway).CD34^+ cells analysis was performed by flow cytometry (Becton Dickinson Immunocytochemistry System Inc., San Jose, Calif.), using CD34-PE (Becton Dickinson Immunocytometry System, Inc.) and CD45-FITC (Dako, Glostrup, Denmark) monoclonal antibodies. […] Liquid Cultures: UCB CD34^+ cells were set for liquid cultures at a concentration of 10^5/mL in IMDM, containing 10% autologous plasma, 2 mM L-glutamine (Sigma Chemical Co., St Louis, Mo.), penicillin ([…]), streptomycin ([…]), amphotericin B (2×10^−5 M) (Sigma Chemical Co.), and heparin (20 IU/mL, Gibco, Grand Island, N.Y.), all in a fully humidified atmosphere at 37° C. and 5% CO2. The following elements were added where noted: • 1. Hematopoietic growth factors: Interleukin 3 (IL3, 5 ng/mL, Immunex, Seattle, Wash.), interleukin 6 (IL6, 50 ng/mL, R&D Systems, Minneapolis, Minn.), TPO (1 ng/mL, R&D Systems), stem cell factor (SCF, 10 ng/mL, R&D Systems), FLT-3 ligand (FLT3, 50 ng/mL, R&D Systems), granulocyte-macrophage colony stimulating factor (GM-CSF, 50 ng/mL, Biogenesis Ltd, Bournemouth, UK) and combinations of the above, for 24 hr to 28 days (supplemented every 4 days). • 2. Endothlial Growth factors: Epidermal growth factor (EGF 10 ng/ml, Sigma Chemical Co.), basic Fibroblast growth factor (bFGF 20 ng/ml, Sigma Chemical Co.) incubated in a serum free medium (SFM) for 48 hr. • 3. […] AChE C-terminal peptides: The following C-terminal peptides of the AChE synaptic (ASP, also denoted SEQ ID: No. 2) and readthrough (ARP, also denoted SEQ ID: No. 1) isoforms were synthesized using a 433A peptide synthesizer (PE Applied Biosystems, Inc., Norwalk, Conn.). • ASP: 1-[…]-40, also denoted as SEQ ID: No. 2. • ARP: 1-[…]-26, also denoted as SEQ ID: No. 1. […]

[3] = tested on: CD34^+ cells; assay: BrdU incorporation into CD34+ cells (cell proliferation); details: GM-CSF alone, 16 hr
Description: Cell Source: UCB was collected, following informed consent of the parents and with the approval of the Sourasky Medical Center Ethics Committee, as previously described [Grisaru et al. (1999a) Am. J. Obstet. Gynecol, 180, 1240–1243]. Following 1:1 (v/v) dilution in Iscove's modified Dulbecco medium (IMDM, Beit Haemek, Israel), mononuclear cells were separated using 3% gelatin (Difco, Detroit, Mich.) and Ficoll-Hypaque gradients (<1.077 g/ml; Pharmacia, Uppsala, Sweden) [Pick et al. (1998) Br. J. Haematol. 103, 639–50]. CD34^+ cells were enriched using CD34 immunoglobulin-coated magnetic beads (CD34 progenitor cell selection system, Dynal, Norway).CD34^+ cells analysis was performed by flow cytometry (Becton Dickinson Immunocytochemistry System Inc., San Jose, Calif.), using CD34-PE (Becton Dickinson Immunocytometry System, Inc.) and CD45-FITC (Dako, Glostrup, Denmark) monoclonal antibodies. […] Liquid Cultures: UCB CD34^+ cells were set for liquid cultures at a concentration of 10^5/mL in IMDM, containing 10% autologous plasma, 2 mM L-glutamine (Sigma Chemical Co., St Louis, Mo.), penicillin ([…]), streptomycin ([…]), amphotericin B (2×10^−5 M) (Sigma Chemical Co.), and heparin (20 IU/mL, Gibco, Grand Island, N.Y.), all in a fully humidified atmosphere at 37° C. and 5% CO2. The following elements were added where noted: • 1. Hematopoietic growth factors: Interleukin 3 (IL3, 5 ng/mL, Immunex, Seattle, Wash.), interleukin 6 (IL6, 50 ng/mL, R&D Systems, Minneapolis, Minn.), TPO (1 ng/mL, R&D Systems), stem cell factor (SCF, 10 ng/mL, R&D Systems), FLT-3 ligand (FLT3, 50 ng/mL, R&D Systems), granulocyte-macrophage colony stimulating factor (GM-CSF, 50 ng/mL, Biogenesis Ltd, Bournemouth, UK) and combinations of the above, for 24 hr to 28 days (supplemented every 4 days). • 2. […] AChE C-terminal peptides: The following C-terminal peptides of the AChE synaptic (ASP, also denoted SEQ ID: No. 2) and readthrough (ARP, also denoted SEQ ID: No. 1) isoforms were synthesized using a 433A peptide synthesizer (PE Applied Biosystems, Inc., Norwalk, Conn.). • ASP: 1-[…]-40, also denoted as SEQ ID: No. 2. • ARP: 1-[…]-26, also denoted as SEQ ID: No. 1.
[…] Twenty-eight day liquid cultures were sampled every 6–8 days for viable cell counting (using trypan blue dye exclusion), cell phenotyping (CD34^+, CD33^+ and CD41^+ quantification using flow cytometry, with CD34-PE, CD33-FITC (Immunotech/Coulter, Hialeah, Fla.), CD41-FITC (Immunoquality Products, Groningen, Netherlands) and CD45-FITC monoclonal antibodies), and growth of progenitor colony (granulocyte-macrophage and megakaryocytic), using previously described techniques (Pick et al. (1998) id ibid.). […]

[4] = day 14, seeded at 50,000 cells/well, ARP 2 nM, cortisol 1.2 μM, ASP 2 nM, SCF 50 ng/ml, AS1 20 pM, PBAN 2 nM

| Substance | MK (CD41^+) fold expansion [1] [fold] | Myeloid (CD33^+) fold expansion [1] [fold] | CD33^+ (early myeloids) [1, 4] [cells per culture × 10^−3] | CD33^+ and CD15^+ (total myeloids) [1, 4] [cells per culture × 10^−3] | CD34^+ (early progenitors) [1, 4] [cells per culture × 10^−3] | CD41^+ (megakaryocytes) [1, 4] | Total viable cells [2] [cells per culture × 10^−3] | BrdU incorporation into CD34+ cells [3] |
| --- | --- | --- | --- | --- | --- | --- | --- | --- |
| SCF | 0.30 ± 0.21 | 3.90 | 69.0 | 72.0 | 6.3 | 2.6^b cells per culture × 10^−3 | 118.0 | – |
| GM-CSF | 14.50 | 1.35 | – | – | – | – | – | increased |
